Experimental findings from patent publication US6384281B1, “3-bicycloaryl-2-aminomethyl bicycloalkanes as serotonine reuptake inhibitors” (Eli Lilly and Company, priority 1999, dated 2002) are described below.

As usually defined, the Ki is the dissociation constant of the complex between target and ligand, obtained from inhibition or displacement. What is called melting point is the temperature of the solid-liquid transition.

Structures can show the parent of a compound that is named as a salt. Bounds are passed on as bounds.

For one data set, the target named is T1, [3H]-citalopram binding sites on rat cerebral cortical membranes (serotonin reuptake) (Rattus norvegicus, UniProt P31652).
T1 construct: from tissue; host or cells: rat cerebral cortex membranes
T1 sequence (P31652 whole entry): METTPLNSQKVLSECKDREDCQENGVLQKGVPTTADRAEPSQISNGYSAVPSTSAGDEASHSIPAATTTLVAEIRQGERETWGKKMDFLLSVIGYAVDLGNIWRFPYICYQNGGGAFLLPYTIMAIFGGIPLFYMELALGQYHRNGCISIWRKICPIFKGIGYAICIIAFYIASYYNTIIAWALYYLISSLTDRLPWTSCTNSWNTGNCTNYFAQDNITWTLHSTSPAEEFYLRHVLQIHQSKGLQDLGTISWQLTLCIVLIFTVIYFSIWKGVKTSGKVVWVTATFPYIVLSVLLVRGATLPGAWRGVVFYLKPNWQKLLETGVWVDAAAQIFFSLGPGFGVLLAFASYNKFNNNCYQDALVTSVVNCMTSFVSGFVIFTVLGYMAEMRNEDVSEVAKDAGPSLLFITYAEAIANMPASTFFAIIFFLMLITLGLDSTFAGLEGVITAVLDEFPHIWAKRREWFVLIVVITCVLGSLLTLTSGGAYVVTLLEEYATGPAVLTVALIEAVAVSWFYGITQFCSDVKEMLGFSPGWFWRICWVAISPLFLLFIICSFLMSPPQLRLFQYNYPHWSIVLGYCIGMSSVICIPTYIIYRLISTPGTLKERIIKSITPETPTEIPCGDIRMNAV
Kind of data set: [3H]-Citalopram binding assay.
Settings: not given
Take `CNCC1C2CCC(C2)C1c1ccc2ccccc2c1` (stereo not drawn) [trans-endo-N-methyl (3-naphthalen-2-ylbicyclo [2.2.1]hept-2-yl)methanamine]: the Ki was under 100 nM. Compound `CN(C)CC1C2CCC(C2)C1c1ccc2ccccc2c1` (stereo not drawn) [trans-endo-N,N-dimethyl(3-naphthalen-2-ylbicyclo[2.2.1]hept-2-yl)methanamine] had a Ki of under 100 nM.

As for `CN(C)C[C@H]1[C@H]2CC[C@H](C2)[C@@H]1c1ccc2cc(F)ccc2c1` [[(1S,2S,3S,4R)-3-(6-fluoro-2-naphthyl)bicyclo[2.2.1]hept-2-yl]-N,N-dimethylmethanamine], the Ki is under 100 nM.

The same data set, now with this note: displacement of [3H]-citalopram, rat cerebral cortical membranes, 37° C. for 90 minutes; read-out: Ki.
On to `CN(C)C[C@H]1[C@H]2CC[C@H](C2)[C@@H]1c1cc2ccc(F)cc2s1` [[(1S,2S,3S,4R)-3-(6-fluoro-1-benzothien-2-yl)bicyclo[2.2.1]hept-2-yl)-N,N-dimethylmethanamine], for which the Ki was under 100 nM. Same read-out and setting: then `CN(C)C[C@H]1[C@H]2CC[C@H](C2)[C@@H]1c1csc2cc(F)ccc12` [[(1S,2S,3S,4R)-3-(6-fluoro-1-benzothien-3-yl)bicyclo[2.2.1]hept-2-yl]-N,N-dimethylmethanamine], with under 100 nM; and `NCC1C2CCC(CC2)C1c1ccc2ccccc2c1` (stereo not drawn) [trans-(3-Naphthalen-2-ylbicyclo[2.2 .2]oct-2-yl)methanamine], with under 100 nM; and `Cc1csc2ccc([C@@H]3[C@H]4CC[C@H](C4)[C@H]3CN(C)C)cc12` [N,N-dimethyl[(1R,2R,3R,4S)-3-(3-methyl-1-benzothien-5-yl)bicyclo[2.2.1]hept-2-yl]methanamine], with under 100 nM.

System in a further data set: not given
Test: not given
Settings: not given
`CN(C)C[C@H]1[C@H]2CC[C@H](C2)[C@@H]1c1ccc2cc(F)ccc2c1` (as salt: hydrochloride) [[(1S,2S,3S,4R)-3-(6-fluoro-2-naphthyl)bicyclo[2.2.1]hept-2-yl]-N,N-dimethylmethanamine]: the melting point was in the range of 137 to 138 °C. On the same count and under the same terms, then `CN(C)CC1C2CCC(C2)C1c1ccc2ccccc2c1` (stereo not drawn) (as salt: hydrochloride) [cis- N,N-dimethyl(3-naphthalen-2-ylbicyclo[2.2.1]hept-2-yl)m] [cis-N,N-dimethyl (3-naphthalen-2-ylbicyclo[2.2.1]hept-2-yl)methanamine], with 255 to 257 °C. On the same count and under the same terms, then `Cc1csc2ccc([C@@H]3[C@H]4CC[C@H](C4)[C@H]3CN(C)C)cc12` (as salt: hydrochloride) [N,N-dimethyl[(1R,2R,3R,4S)-3-(3-methyl-1-benzothien-5-yl)bicyclo[2.2.1]hept-2-yl]methanamine], with 250 to 252 °C. `CN(C)CC1C2CCC(C2)C1c1ccc2ccccc2c1` (stereo not drawn) (as salt: hydrochloride) [trans-endo-N,N-dimethyl(3-naphthalen-2-ylbicyclo[2.2.1]hept-] [trans-endo-N,N-dimethyl(3-naphthalen-2-ylbicyclo[2.2.1]hept-2-yl)methanamine] gave a melting point of 249 to 250 °C.

Regarding `CN(C)C[C@H]1[C@H]2CC[C@H](C2)[C@@H]1c1ccc2ccsc2c1` (as salt: hydrochloride), the melting point lay in the range of 240 to 242 °C.
